Laboratory results: US20050192182A1, “Herbicidal mixtures based on substituted aryl ketones” (priority 2001, published 2005)

Assays:
[1] = system: ELTTP; test: Test in transplanted paddy rice (greenhouse), water-surface application; type: in vivo, Elatine; conditions: 3 weeks after application
Description: (§1) Test in Transplanted Paddy Rice
(§2) To produce a preparation of active compound, 1 part by weight of an active compound combination according to the invention is mixed with the stated amount of solvent and, after addition of the stated amount of emulsifier, diluted with water to the desired concentration.
(§3) Vessels for planting (500 cm^2) are filled with soil from a rice field. In each case 3 rice plants (cultivar: Nipponbare, 2-3-leaf stage, height: about 15 cm) are planted into the center of the vessels for planting. Seeds of Cyperus, Echinochloa, Lindernia, Rotala and Elatine are sown into the same vessels for planting. The soil in the vessels is kept moist. After two days, each vessel for planting is flooded to a water depth of 2-3 cm.
(§4) Five days after the transplanting of the rice plants, the amount of active compound in the preparation described above is applied to the surface of the water in the vessels for planting using a pipette. The water depth in the vessels for planting is kept at 2-3 cm.
(§5) 3 weeks after the application of active compound, the efficacy is rated in % damage in comparison to the untreated control.
(§6) The figures denote • 0% no effect/damage (like untreated control) • 100% total destruction

[2] = system: ROTIN; test: as above; type: in vivo, Rotala; conditions: 3 weeks after application
Description: as §1, §2, §3, §4, §5, §6

[3] = system: LIDPY; test: as above; type: in vivo, Lindernia; conditions: 3 weeks after application
Description: as §1, §2, §3, §4, §5, §6

[4] = system: Solanum nigrum; test: Post-emergence greenhouse spray test; type: in vivo; conditions: about 3 weeks
Method: (§7) The required amount of active compound or formulation is dissolved in a few milliliters (2-3 ml) of the solvent (acetone or DMF), an emulsifier (1 ml) is added, if required, and the mixture is diluted with water to the desired concentration.
(§8) Mixtures are prepared by mixing a predetermined dissolved amount of the first active compound with the required amount of the second active compound (and, if desired, with additional active compounds/formulations or other ingredients), and then diluting the mixture with water to the desired concentration.
(§9) In pre- and post-emergence experiments, a surfactant (Renex 36) is usually added, at a concentration of 0.1%, to the spray solution.
(§10) The amount of active compound or formulation is chosen such that the desired application rate per ha is achieved.
(§11) Test plants are grown under controlled conditions (temperature and light). Once the plants have reached a height of 5-15 cm, the test compound or the combination of test compounds is applied by spraying such that the particular amounts of active compound desired are applied per unit area. The concentration of the spray liquor is chosen such that the desired amounts of active compound are in each case applied in 500 1 of water/ha.
(§12) After the spray application, the vessels containing the plants are stored in a greenhouse under constant conditions with respect to light and temperature.
(§13) After about 3 weeks, the degree of damage to the plants is rated in % damage in comparison to the development of the untreated control.
(§14) The figures denote: • 0%=no damage (like untreated control) • 100%=total destruction/damage • a.i.=active ingredient Flufenacet Tested as 60 WG • (I-31)/(I-34) tested as active compounds • * values calculated according to Colby

[5] = system: Chenopodium album; test: Post-emergence greenhouse spray test; type: in vivo; conditions: about 3 weeks
Method: as §7, §8, §9, §10, §11, §12, §13, §14

[6] = system: Amaranthus retroflexus; test: Post-emergence greenhouse spray test; type: in vivo; conditions: about 3 weeks
Method: as §7, §8, §9, §10, §11, §12, §13, §14

[7] = system: Abutilon theophrasti; test: Post-emergence greenhouse spray test; type: in vivo; conditions: about 3 weeks
Method: as §7, §8, §9, §10, §11, §12, §13, §14

[8] = system: Digitaria sanguinalis; test: Post-emergence greenhouse spray test; type: in vivo; conditions: about 3 weeks
Method: as §7, §8, §9, §10, §11, §12, §13, §14

[9] = system: CYPDI; test: Test in transplanted paddy rice (greenhouse), water-surface application; type: in vivo, Cyperus; conditions: 135 g/ha, 3 weeks after application
Description: as §1, §2, §3, §4, §5, §6

[10] = system: ECHSS; test: as above; type: in vivo, Echinochloa; conditions: 135 g/ha, 3 weeks after application
Description: as §1, §2, §3, §4, §5, §6

## Cn1nnn(CCOc2c(Cl)ccc(C(=O)C3C(=O)CCCC3=O)c2Cl)c1=O [Example I-22, 2-[2,4-dichloro-3-[2-(4-methyl-5-oxo-4,5-dihydro-1H-tetrazol-1-yl)-ethoxy]-benzoyl]-1,3-cyclohexanedione]
[1]; 30 g/ha
  efficacy in % damage, Compound (I) alone: 60%
[2]; 30 g/ha
  efficacy in % damage, Compound (I) alone: 70%
[3]; 30 g/ha
  efficacy in % damage, Compound (I) alone: 70%

## O=C1CC[C@@H](COc2c(Br)ccc(C(=O)C3C(=O)CCCC3=O)c2Br)N1 [Example I-31, (5S)-5-[[2,6-dibromo-3-[(2,6-dioxo-1-cyclohexyl)-carbonyl]-phenoxy]-methyl]-2-pyrrolidinone]
[4]; 30 g of ai/ha
  Solanum nigrum observed (% damage): 10%
[5]; 15 g of ai/ha
  Chenopodium album observed (% damage): 0%
[5]; 30 g of ai/ha
  Chenopodium album observed (% damage): 20%
[6]; 8 g of ai/ha
  Amaranthus retroflexus observed (% damage): 0%
[6]; 15 g of ai/ha
  Amaranthus retroflexus observed (% damage): 0%
[6]; 30 g of ai/ha
  Amaranthus retroflexus observed (% damage): 0%
[7]; 15 g of ai/ha
  Abutilon theophrasti observed (% damage): 0%
[7]; 30 g of ai/ha
  Abutilon theophrasti observed (% damage): 10%

## O=C1CC[C@@H](COc2c(Cl)ccc(C(=O)C3C(=O)CCCC3=O)c2Cl)N1 [Example I-34, (5S)-5-[[2,6-dichloro-3-[(2,6-dioxo-1-cyclohexyl)-carbonyl]-phenoxy]-methyl]-2-pyrrolidinone]
[5]; 15 g of ai/ha
  Chenopodium album observed (% damage): 90%
[5]; 30 g of ai/ha
  Chenopodium album observed (% damage): 90%
[8]; 15 g of ai/ha
  Digitaria sanguinalis observed (% damage): 0%
[8]; 30 g of ai/ha
  Digitaria sanguinalis observed (% damage): 0%
[6]; 15 g of ai/ha
  Amaranthus retroflexus observed (% damage): 0%
[6]; 30 g of ai/ha
  Amaranthus retroflexus observed (% damage): 0%

## CC(C)N(C(=O)COc1nnc(C(F)(F)F)s1)c1ccc(F)cc1 [Flufenacet, N-(4-fluoro-phenyl)-N-i-propyl-2-(5-trifluoromethyl-1,3,4-thiadiazol-2-yl-oxy)-acetamide, reference compound]
[4]; 125 g of ai/ha
  Solanum nigrum observed (% damage): 30%
[5]; 125 g of ai/ha
  Chenopodium album observed (% damage): 0%
[8]; 125 g of ai/ha
  Digitaria sanguinalis observed (% damage): 70%
[6]; 125 g of ai/ha
  Amaranthus retroflexus observed (% damage): 60%
[7]; 125 g of ai/ha
  Abutilon theophrasti observed (% damage): 0%

## CCN(C(=O)n1nnn(-c2ccccc2Cl)c1=O)C1CCCCC1 [fentrazamide, 4-(2-chloro-phenyl)-N-cyclohexyl-N-ethyl-4,5-dihydro-5-oxo-1H-tetrazole-1-carboxamide, reference compound]
[1]; 135 g/ha
  efficacy in % damage, Compound (II) alone: 60%
[2]; 135 g/ha
  efficacy in % damage, Compound (II) alone: 60%
[9]
  efficacy in % damage, Compound (II) alone: 60%
[10]
  efficacy in % damage, Compound (II) alone: 70%
[3]; 135 g/ha
  efficacy in % damage, Compound (II) alone: 60%
